Like-named read-outs stand apart in the source and are kept apart here.
Experiments:
[1] = biological target: TBK1 (Homo sapiens (Human), UniProt Q9UHD2); assay: Lanthascreen TR-FRET kinase inhibition assay, TBK1; assay type: biochemical; conditions: 20 μM ATP (apparent Km), 8 nM kinase, 2.5 h
Method: (§1) Compounds of the invention (synthesised as described below) were tested for activity against the IKKε and TBK-1 enzyme as follows:
(§2) Inhibitions studies were performed using a time-resolved fluorescence-based Lanthascreen™ assay. Phosphorylation of a fluorescein-labelled substrate peptide is measured using terbium-labeled phosphospecific antibodies.
(§3) Kinase inhibition assays (10 μL) were performed at 20° C. in 384-well plate format. […] The final reaction conditions contained 400 nM fluorescein-IkBα substrate ([…]), 20 μM ATP, 2 nM or 8 nM IKKε or TBK1 kinase respectively, and 3% DMSO in kinase assay buffer consisting of 50 mM HEPES (pH 7.5), 10 mM MgCl, 1 mM EGTA, 0.01% Brij-35.
(§4) Compound dilutions were prepared from 10 mM DMSO stocks by dilution into DMSO.
(§5) The kinase phosphorylation assay was initiated by the addition of the kinase and the reaction was allowed to proceed for 1 h or 2.5 h for IKKε and TBK-1 kinase respectively.

[2] = biological target: IKKε (Homo sapiens (Human), UniProt Q14164); assay: Lanthascreen TR-FRET kinase inhibition assay, IKKε; assay type: biochemical
Method: as §1, §2, §3, §4, §5

[3] = 20 μM ATP (apparent Km), 2 nM kinase, 1 h

Sequence of IKKε (Q14164 whole entry): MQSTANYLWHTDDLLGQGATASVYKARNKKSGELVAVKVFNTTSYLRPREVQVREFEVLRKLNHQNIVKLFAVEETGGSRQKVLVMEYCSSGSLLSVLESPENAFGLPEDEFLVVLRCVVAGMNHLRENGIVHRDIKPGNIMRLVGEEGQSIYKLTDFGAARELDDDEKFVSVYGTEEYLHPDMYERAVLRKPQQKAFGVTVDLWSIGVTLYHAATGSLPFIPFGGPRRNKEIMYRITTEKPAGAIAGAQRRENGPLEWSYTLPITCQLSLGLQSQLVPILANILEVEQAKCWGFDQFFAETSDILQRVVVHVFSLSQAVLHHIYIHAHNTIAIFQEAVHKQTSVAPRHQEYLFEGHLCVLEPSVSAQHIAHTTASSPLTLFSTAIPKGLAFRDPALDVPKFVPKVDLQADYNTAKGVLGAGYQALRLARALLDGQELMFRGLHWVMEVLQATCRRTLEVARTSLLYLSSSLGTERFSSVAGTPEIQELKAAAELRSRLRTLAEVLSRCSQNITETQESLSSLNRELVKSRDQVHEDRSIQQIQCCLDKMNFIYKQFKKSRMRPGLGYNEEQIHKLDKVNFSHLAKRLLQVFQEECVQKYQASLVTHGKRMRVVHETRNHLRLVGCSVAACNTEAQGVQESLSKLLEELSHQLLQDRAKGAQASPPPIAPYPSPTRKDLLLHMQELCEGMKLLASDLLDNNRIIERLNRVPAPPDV
Sequence of TBK1 (Q9UHD2 whole entry): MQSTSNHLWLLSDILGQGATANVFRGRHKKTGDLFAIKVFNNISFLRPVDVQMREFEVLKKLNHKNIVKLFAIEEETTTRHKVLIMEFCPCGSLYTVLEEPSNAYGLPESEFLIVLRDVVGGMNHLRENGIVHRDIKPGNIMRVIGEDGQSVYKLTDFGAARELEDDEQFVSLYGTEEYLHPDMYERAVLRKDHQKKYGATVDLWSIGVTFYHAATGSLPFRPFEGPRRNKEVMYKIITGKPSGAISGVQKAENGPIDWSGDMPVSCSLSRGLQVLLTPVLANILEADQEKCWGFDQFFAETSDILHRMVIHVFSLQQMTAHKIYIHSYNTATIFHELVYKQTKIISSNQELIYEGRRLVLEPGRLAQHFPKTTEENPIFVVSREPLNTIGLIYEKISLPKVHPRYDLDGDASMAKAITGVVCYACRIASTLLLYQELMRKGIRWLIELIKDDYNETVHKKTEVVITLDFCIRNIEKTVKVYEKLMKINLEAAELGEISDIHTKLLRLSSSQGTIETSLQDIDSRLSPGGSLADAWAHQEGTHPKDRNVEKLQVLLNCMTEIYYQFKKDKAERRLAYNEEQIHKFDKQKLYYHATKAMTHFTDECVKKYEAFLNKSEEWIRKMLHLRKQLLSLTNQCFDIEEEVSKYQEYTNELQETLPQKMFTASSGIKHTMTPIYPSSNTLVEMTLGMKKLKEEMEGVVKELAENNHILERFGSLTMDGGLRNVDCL

| SMILES | IC50 [1] | IC50 [2, 3] | IC50 [2] |
| --- | --- | --- | --- |
| CN1CCC(Nc2ccc(Nc3nccc(-c4cnc(N5CC[C@H](F)C5)c(C#N)c4)n3)cn2)CC1 [DMX-9, 2-((S)-3-Fluoro-pyrrolidin-1-yl)-5-{2-[6-(1-methyl-piperidin-4-ylamino)-pyridin-3-ylamino]-pyrimidin-4-yl}-nicotinonitrile] | < 30 nM | < 15 nM | – |
| N#Cc1cc(-c2ccnc(Nc3ccc(NC4CCNCC4)nc3)n2)cnc1N1CC[C@H](F)C1 [DMX-10, 2-((S)-3-Fluoro-pyrrolidin-1-yl)-5-{2-[6-(piperidin-4-ylamino)-pyridin-3-ylamino]-pyrimidin-4-yl}-nicotinonitrile] | < 30 nM | < 30 nM | – |
| CN1CCC(Nc2ccc(Nc3nccc(-c4cnc(N5CC[C@H](O)C5)c(C#N)c4)n3)cn2)CC1 [DMX-13, 2-((S)-3-Hydroxy-pyrrolidin-1-yl)-5-{2-[6-(1-methyl-piperidin-4-ylamino)-pyridin-3-ylamino]-pyrimidin-4-yl}-nicotinonitrile] | < 100 nM | < 100 nM | – |
| CN1CCC(Nc2ccc(Nc3nccc(-c4cnc(N5CCC(F)(F)C5)c(C#N)c4)n3)cn2)CC1 [DMX-15, 2-(3,3-Difluoro-pyrrolidin-1-yl)-5-{2-[6-(1-methyl-piperidin-4-ylamino)-pyridin-3-ylamino]-pyrimidin-4-yl}-nicotinonitrile] | < 30 nM | < 100 nM | – |
| N#Cc1cc(-c2ccnc(Nc3ccc(NC(=O)CN4CCOCC4)nc3)n2)cnc1N1CC[C@H](F)C1 [DMX-17, N-(5-{4-[5-Cyano-6-((S)-3-fluoro-pyrrolidin-1-yl)-pyridin-3-yl]-pyrimidin-2-ylamino}-pyridin-2-yl)-2-morpholin-4-yl-acetamide] | < 30 nM | < 30 nM | – |
| CC(C(=O)Nc1ccc(Nc2nccc(-c3cnc(N4CC[C@H](F)C4)c(C#N)c3)n2)cn1)N(C)C (stereo partly drawn) [DMX-18, N-(5-{4-[5-Cyano-6-((S)-3-fluoro-pyrrolidin-1-yl)-pyridin-3-yl]-pyrimidin-2-ylamino}-pyridin-2-yl)-2-dimethylamino-propionamide] | < 100 nM | < 100 nM | – |
| N#Cc1cc(-c2ccnc(Nc3cnc(N4CCOCC4)nc3)n2)cnc1N1CC[C@H](F)C1 [DMX-20, 2-((S)-3-Fluoro-pyrrolidin-1-yl)-5-[2-(2-morpholin-4-yl-pyrimidin-5-ylamino)-pyrimidin-4-yl]-nicotinonitrile] | < 100 nM | < 100 nM | – |
| COCCN(C)CC(=O)Nc1ccc(Nc2nccc(-c3cnc(N4CC[C@H](F)C4)c(C#N)c3)n2)cn1 [DMX-21, N-(5-{4-[5-Cyano-6-((S)-3-fluoro-pyrrolidin-1-yl)-pyridin-3-yl]-pyrimidin-2-ylamino}-pyridin-2-yl)-2-[(2-methoxy-ethyl)-methyl-amino]-acetamide] | < 30 nM | < 30 nM | – |
| CC(C)(O)CNc1ccc(Nc2nccc(-c3cnc(N4CC[C@H](F)C4)c(C#N)c3)n2)cn1 [DMX-22, 2-((S)-3-Fluoro-pyrrolidin-1-yl)-5-{2-[6-(2-hydroxy-2-methyl-propylamino)-pyridin-3-ylamino]-pyrimidin-4-yl}-nicotinonitrile] | < 30 nM | < 15 nM | – |
| CC(C)N1CCN(CC(=O)Nc2ccc(Nc3nccc(-c4cnc(N5CC[C@H](F)C5)c(C#N)c4)n3)cn2)CC1 [DMX-23, N-(5-{4-[5-Cyano-6-((S)-3-fluoro-pyrrolidin-1-yl)-pyridin-3-yl]-pyrimidin-2-ylamino}-pyridin-2-yl)-2-(4-isopropyl-piperazin-1-yl)-acetamide] | < 30 nM | < 30 nM | – |
| CN1CCN(c2ccc(Nc3nccc(-c4cnc(N5CC[C@H](F)C5)c(C#N)c4)n3)cn2)CC1 [DMX-24, 2-((S)-3-Fluoro-pyrrolidin-1-yl)-5-{2-[6-(4-methyl-piperazin-1-yl)-pyridin-3-ylamino]-pyrimidin-4-yl}-nicotinonitrile] | < 15 nM | < 15 nM | – |
| N#Cc1cc(-c2ccnc(Nc3ccc(N4CCNCC4)nc3)n2)cnc1N1CC[C@H](F)C1 [DMX-25, 2-((S)-3-Fluoro-pyrrolidin-1-yl)-5-[2-(6-piperazin-1-yl-pyridin-3-ylamino)-pyrimidin-4-yl]-nicotinonitrile] | < 30 nM | < 15 nM | – |
| C[C@@H]1CN(c2ccc(Nc3nccc(-c4cnc(N5CC[C@H](O)C5)c(C#N)c4)n3)cn2)CCN1 [DMX-26, 2-((S)-3-Hydroxy-pyrrolidin-1-yl)-5-{2-[6-((R)-3-methyl-piperazin-1-yl)-pyridin-3-ylamino]-pyrimidin-4-yl}-nicotinonitrile] | < 30 nM | < 100 nM | – |
| N#Cc1cc(-c2ccnc(Nc3ccc(NCCO)nc3)n2)cnc1N1CC[C@H](F)C1 [DMX-27, 2-((S)-3-Fluoro-pyrrolidin-1-yl)-5-{2-[6-(2-hydroxy-ethylamino)-pyridin-3-ylamino]-pyrimidin-4-yl}-nicotinonitrile] | < 30 nM | – | < 30 nM |
| CN1CCC(NC(=O)c2ccc(Nc3ncc(F)c(-c4cnc(N5CC[C@H](F)C5)c(C#N)c4)n3)cc2)CC1 [DMX-28, 4-{4-[5-Cyano-6-((S)-3-fluoro-pyrrolidin-1-yl)-pyridin-3-yl]-5-fluoro-pyrimidin-2-ylamino}-N-(1-methyl-piperidin-4-yl)-benzamide] | < 15 nM | < 15 nM | – |
| N#Cc1cc(-c2ccnc(Nc3ccc(NC(=O)CN4CCC(O)CC4)nc3)n2)cnc1N1CC[C@H](F)C1 [DMX-29, N-(5-{4-[5-Cyano-6-((S)-3-fluoro-pyrrolidin-1-yl)-pyridin-3-yl]-pyrimidin-2-ylamino}-pyridin-2-yl)-2-(4-hydroxy-piperidin-1-yl)-acetamide] | < 30 nM | < 30 nM | – |

Now from value to molecule:

| IC50 [1] | IC50 [2, 3] | IC50 [2] | SMILES |
| --- | --- | --- | --- |
| < 30 nM | < 100 nM | – | CN1CCC(NC(=O)c2cccc(Nc3nccc(-c4cnc(N5CC[C@H](F)C5)c(C#N)c4)n3)c2)CC1 [DMX-1, 3-{4-[5-Cyano-6-((S)-3-fluoro-pyrrolidin-1-yl)-pyridin-3-yl]-pyrimidin-2-ylamino}-N-(1-methyl-piperidin-4-yl)-benzamide] |
| < 30 nM | < 30 nM | – | N#Cc1cc(-c2ccnc(Nc3cccc(C(N)=O)c3)n2)cnc1N1CCCC1 [DMX-2, 3-[4-(5-Cyano-6-pyrrolidin-1-yl-pyridin-3-yl)-pyrimidin-2-ylamino]-benzamide] |
| < 15 nM | < 15 nM | – | CN1CCN(c2ccc(Nc3nccc(-c4cnc(N5CCCC5)c(C#N)c4)n3)cn2)CC1 [DMX-3, 5-{2-[6-(4-Methyl-piperazin-1-yl)-pyridin-3-ylamino]-pyrimidin-4-yl}-2-pyrrolidin-1-yl-nicotinonitrile] |
| < 15 nM | < 30 nM | – | N#Cc1cc(-c2ccnc(Nc3ccc(N4CCOCC4)cc3)n2)cnc1N1CCCC1 [DMX-5, 5-[2-(4-Morpholin-4-yl-phenylamino)-pyrimidin-4-yl]-2-pyrrolidin-1-yl-nicotinonitrile] |
| < 30 nM | < 100 nM | – | CN1CCN(C(=O)c2cccc(Nc3nccc(-c4cnc(N5CC[C@H](F)C5)c(C#N)c4)n3)c2)CC1 [DMX-6, 2-((S)-3-Fluoro-pyrrolidin-1-yl)-5-{2-[3-(4-methyl-piperazine-1-carbonyl)-phenylamino]-pyrimidin-4-yl}-nicotinonitrile] |
| < 30 nM | < 30 nM | – | Cn1cc(Nc2nccc(-c3cnc(N4CC[C@H](F)C4)c(C#N)c3)n2)cn1 [DMX-7, 2-((S)-3-Fluoro-pyrrolidin-1-yl)-5-[2-(1-methyl-1H-pyrazol-4-ylamino)-pyrimidin-4-yl]-nicotinonitrile] |
| < 30 nM | < 30 nM | – | CC(=O)Nc1ccc(Nc2nccc(-c3cnc(N4CC[C@H](F)C4)c(C#N)c3)n2)cn1 [DMX-8, N-(5-{4-[5-Cyano-6-((S)-3-fluoro-pyrrolidin-1-yl)-pyridin-3-yl]-pyrimidin-2-ylamino}-pyridin-2-yl)-acetamide] |
| < 30 nM | < 30 nM | – | N#Cc1cc(-c2ccnc(Nc3cccc(C(=O)NC4CCNCC4)c3)n2)cnc1N1CC[C@H](F)C1 [DMX-11, 3-{4-[5-Cyano-6-((S)-3-fluoro-pyrrolidin-1-yl)-pyridin-3-yl]-pyrimidin-2-ylamino}-N-piperidin-4-yl-benzamide] |
| < 100 nM | < 1000 nM | – | CN1CCC(NC(=O)c2cccc(Nc3nccc(-c4cnc(N5CC[C@H](O)C5)c(C#N)c4)n3)c2)CC1 [DMX-12, 3-{4-[5-Cyano-6-((S)-3-hydroxy-pyrrolidin-1-yl)-pyridin-3-yl]-pyrimidin-2-ylamino}-N-(1-methyl-piperidin-4-yl)-benzamide] |
| < 100 nM | < 100 nM | – | CN1CCC(NC(=O)c2cccc(Nc3nccc(-c4cnc(N5CCC(F)(F)C5)c(C#N)c4)n3)c2)CC1 [DMX-14, 3-{4-[5-Cyano-6-(3,3-difluoro-pyrrolidin-1-yl)-pyridin-3-yl]-pyrimidin-2-ylamino}-N-(1-methyl-piperidin-4-yl)-benzamide] |
| < 100 nM | < 100 nM | – | Cn1cc(Nc2nccc(-c3cnc(N4CC[C@H](O)C4)c(C#N)c3)n2)cn1 [DMX-16, 2-((S)-3-Hydroxy-pyrrolidin-1-yl)-5-[2-(1-methyl-1H-pyrazol-4-ylamino)-pyrimidin-4-yl]-nicotinonitrile] |
| < 100 nM | < 100 nM | – | N#Cc1cc(-c2ccnc(Nc3ccc(NC(=O)C4CC4)nc3)n2)cnc1N1CC[C@H](F)C1 [DMX-19, Cyclopropanecarboxylic acid (5-{4-[5-cyano-6-((S)-3-fluoro-pyrrolidin-1-yl)-pyridin-3-yl]-pyrimidin-2-ylamino}-pyridin-2-yl)-amide] |

Source: patent US9433622B2, “Pyrimidine compounds useful in the treatment of diseases mediated by IKKE and/or TBK1 mechanisms” (DOMAINEX LIMITED, priority 2013, dated 2016)
